Series [1] relates to μpatterned hiPSC-CMs. The series is described as follows: movement of LifeAct-labeled myofibrils in beating μpatterned hiPSC-CMs (cross-correlation, Ncorr). The series is classed as cell-based, human. To be noted: 1 μM and 10 nM omecamtiv mecarbil (FIG. 11).
For series [2], the system named is CMs. To be noted: 0.1 μM isoproterenol (Butler 2015); cited from earlier work.
The test system of series [3] is hiPSC-CMs. To be noted: 1 μM isoproterenol (Yokoo 2009); cited from earlier work.

Molecules are shown by their SMILES.

On to `COC(=O)N1CCN(Cc2cccc(NC(=O)Nc3ccc(C)nc3)c2F)CC1` [omecamtiv mecarbil], for which the “myofibril damage at other concentrations” value in series [1] is on record as “Such level of damage was also observed”.
In the case of `CC(C)NCC(O)c1ccc(O)c(O)c1` (stereo not shown) [isoproterenol], the “inotropic and chronotropic response in CMs” value in series [2] is “positive inotropic and positive chronotropic responses”. Moreover, in series [3], the beat rate entry was “increase” and the mechanical output entry is “decrease”.

The values above are taken from patent publication US20180106782A1, “HIGH THROUGHPUT CARDIOTOXICITY SCREENING PLATFORM” (The Board of Trustees of the Leland Stanford Junior …, priority 2016, published 2018).
